The target in test [1] is T1, Recombinant IKKβ (Homo sapiens, UniProt O14920).
T1 construct: purchased Millipore, Dundee, UK
T1 sequence (O14920 1-756): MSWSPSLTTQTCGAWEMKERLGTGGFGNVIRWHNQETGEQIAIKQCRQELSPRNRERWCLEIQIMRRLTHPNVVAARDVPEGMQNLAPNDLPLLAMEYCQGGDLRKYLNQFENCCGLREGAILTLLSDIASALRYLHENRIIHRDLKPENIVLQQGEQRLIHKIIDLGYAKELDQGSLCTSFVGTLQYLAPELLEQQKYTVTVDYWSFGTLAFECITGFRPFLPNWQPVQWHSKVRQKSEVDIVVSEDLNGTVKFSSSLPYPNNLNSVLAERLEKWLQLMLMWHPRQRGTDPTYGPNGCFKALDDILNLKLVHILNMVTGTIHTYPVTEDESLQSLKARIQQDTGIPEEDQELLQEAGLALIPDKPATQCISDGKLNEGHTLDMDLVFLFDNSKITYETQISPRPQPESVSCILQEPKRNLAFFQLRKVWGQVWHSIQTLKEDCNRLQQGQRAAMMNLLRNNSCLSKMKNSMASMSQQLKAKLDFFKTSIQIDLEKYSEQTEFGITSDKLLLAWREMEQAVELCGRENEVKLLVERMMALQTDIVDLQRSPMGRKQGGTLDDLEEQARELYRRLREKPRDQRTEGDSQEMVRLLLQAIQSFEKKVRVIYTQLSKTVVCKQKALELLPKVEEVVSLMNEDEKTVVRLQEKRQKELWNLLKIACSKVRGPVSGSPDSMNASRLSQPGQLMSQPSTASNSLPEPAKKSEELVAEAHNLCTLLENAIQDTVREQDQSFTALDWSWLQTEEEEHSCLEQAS
The test can be described thus: DELFIA IKKβ kinase assay (apparent Ki, Cheng-Prusoff). The test is classed as biochemical. Particulars: DELFIA assay (first line of an example). In a few lines: (§1)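 DELFIA time-resolved fluorescence (ex 340/em 615 nm) quantified phosphorylation of a biotinylated IκB-α Ser32 peptide (0.375 μM) by 37 nM recombinant IKKα or IKKβ. Reactions used 40 μM ATP, Tris pH 7.5 buffer with MgCl2, DTT and BSA, 60 min at 30° C. Cheng-Prusoff equation gave apparent Ki.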

Test [2] deals with T2, Recombinant IKKα (Homo sapiens, UniProt O15111).
T2 construct: purchased Millipore, Dundee, UK
T2 sequence (O15111 1-745): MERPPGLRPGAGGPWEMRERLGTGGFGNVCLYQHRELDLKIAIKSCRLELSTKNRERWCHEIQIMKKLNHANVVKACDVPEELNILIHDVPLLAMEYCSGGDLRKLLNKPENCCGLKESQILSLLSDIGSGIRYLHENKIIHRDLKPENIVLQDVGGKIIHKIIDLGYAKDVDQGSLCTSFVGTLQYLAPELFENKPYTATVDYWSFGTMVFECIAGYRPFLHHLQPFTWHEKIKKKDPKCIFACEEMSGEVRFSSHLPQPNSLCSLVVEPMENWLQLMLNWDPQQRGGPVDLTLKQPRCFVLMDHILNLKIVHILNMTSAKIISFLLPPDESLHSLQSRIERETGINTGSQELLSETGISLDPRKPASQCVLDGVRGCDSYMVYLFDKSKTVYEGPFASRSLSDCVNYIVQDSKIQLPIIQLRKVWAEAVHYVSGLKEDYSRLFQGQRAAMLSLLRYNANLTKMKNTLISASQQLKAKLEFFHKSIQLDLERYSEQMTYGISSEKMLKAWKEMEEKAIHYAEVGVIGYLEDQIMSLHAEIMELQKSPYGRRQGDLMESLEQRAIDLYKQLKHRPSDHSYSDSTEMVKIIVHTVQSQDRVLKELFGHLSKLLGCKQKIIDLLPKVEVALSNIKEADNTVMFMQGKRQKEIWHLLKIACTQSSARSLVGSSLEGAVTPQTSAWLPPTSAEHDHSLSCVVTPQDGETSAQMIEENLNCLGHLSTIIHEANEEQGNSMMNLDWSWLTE
The test can be described thus: DELFIA IKKα kinase assay (apparent Ki, Cheng-Prusoff). The class given is biochemical. Particulars: DELFIA assay (first line of an example). In a few lines:
as §1

Regarding `COC(=O)Nc1cc(-c2cc(C#CC(C)(C)C)c3[nH]nc(N)c3c2)ccn1` [Example 190, Methyl (4-(3-amino-7-(3,3-dimethylbut-1-yn-1-yl)-1H-indazol-5-yl)pyridin-2-yl)carbamate], the Ki is 1170 nM in test [1] and 12 nM in test [2].
In the same order, the values of `CCOC(=O)Nc1cc(-c2cc(C#CC(C)(C)C)c3[nH]nc(N)c3c2)ccn1` [Example 191, Ethyl (4-(3-amino-7-(3,3-dimethylbut-1-yn-1-yl)-1H-indazol-5-yl)pyridin-2-yl)carbamate] are 1590 nM and 20 nM.
The matching figures for `CC(C)(C)C#Cc1cc(-c2ccnc(NS(C)(=O)=O)c2)cc2c(N)n[nH]c12` [Example 194, N-(4-(3-amino-7-(3,3-dimethylbut-1-yn-1-yl)-1H-indazol-5-yl)pyridin-2-yl)methanesulfonamide]: 4900 nM and 373 nM.
In the case of `CC(=O)Nc1cc(-c2cc(-c3ccncc3)c3[nH]nc(N)c3c2)ccn1` [Example 197, N-(4-(3-Amino-7-(pyridin-4-yl)-1H-indazol-5-yl)pyridin-2-yl)acetamide], the Ki in test [1] worked out at 70 nM; in test [2], 25 nM.
In the same order, the values of `Nc1n[nH]c2c(-c3ccoc3)cc(-c3ccnc4[nH]ccc34)cc12` [Example 199, 7-(Furan-3-yl)-5-(1H-pyrrolo[2,3-b]pyridin-4-yl)-1H-indazol-3-amine] are 45 nM and 6 nM.
In the same order, the values of `Nc1n[nH]c2c(C#CCO)cc(-c3ccnc4[nH]ccc34)cc12` [Example 205, 3-(3-Amino-5-(1H-pyrrolo[2,3-b]pyridin-4-yl)-1H-indazol-7-yl)prop-2-yn-1-ol] are 3100 nM and 366 nM.
In the same order, the values of `Nc1n[nH]c2c(C#CC3(O)CCCC3)cc(-c3ccnc4[nH]ccc34)cc12` [Example 207, 1-((3-Amino-5-(1H-pyrrolo[2,3-b]pyridin-4-yl)-1H-indazol-7-yl)ethynyl)cyclopentan-1-ol] are 1470 nM and 82 nM.
In the case of `Nc1n[nH]c2c(C#CC3(O)CCCCC3)cc(-c3ccnc4[nH]ccc34)cc12` [Example 208, 1-((3-Amino-5-(1H-pyrrolo[2,3-b]pyridin-4-yl)-1H-indazol-7-yl)ethynyl)cyclohexan-1-ol], the Ki in test [1] amounted to 528 nM; in test [2] it was 76 nM.
In the same order, the values of `Nc1n[nH]c2c(C#CC3(O)CCCCCC3)cc(-c3ccnc4[nH]ccc34)cc12` [Example 209, 1-((3-Amino-5-(1H-pyrrolo[2,3-b]pyridin-4-yl)-1H-indazol-7-yl)ethynyl)cycloheptan-1-ol] are 2330 nM and 153 nM.
The matching figures for `Nc1n[nH]c2c(C#CCCN3CCCCC3)cc(-c3ccnc4[nH]ccc34)cc12` [Example 211, 7-(4-(Piperidin-1-yl)but-1-yn-1-yl)-5-(1H-pyrrolo[2,3-b]pyridin-4-yl)-1H-indazol-3-amine]: 356 nM and 19 nM.
The matching figures for `Nc1n[nH]c2c(C#CCCCCN3CCCCC3)cc(-c3ccnc4[nH]ccc34)cc12` [Example 213, 7-(6-(Piperidin-1-yl)hex-1-yn-1-yl)-5-(1H-pyrrolo[2,3-b]pyridin-4-yl)-1H-indazol-3-amine]: 2510 nM and 40 nM.
Take `Nc1n[nH]c2c(C#CCCCC(=O)O)cc(-c3ccnc4[nH]ccc34)cc12` [Example 214, 6-(3-Amino-5-(1H-pyrrolo[2,3-b]pyridin-4-yl)-1H-indazol-7-yl)hex-5-ynoic acid]: the Ki in test [1] was found to be 268 nM; in test [2], 21 nM.
In the same order, the values of `Nc1n[nH]c2c(C#CCCCCC(=O)O)cc(-c3ccnc4[nH]ccc34)cc12` [Example 215, 7-(3-Amino-5-(1H-pyrrolo[2,3-b]pyridin-4-yl)-1H-indazol-7-yl)hept-6-ynoic acid] are 256 nM and 38 nM.
The matching figures for `Nc1n[nH]c2c(C#CCCOc3ccccc3)cc(-c3ccnc4[nH]ccc34)cc12` [Example 216, 7-(4-Phenoxybut-1-yn-1-yl)-5-(1H-pyrrolo[2,3-b]pyridin-4-yl)-1H-indazol-3-amine]: 81 nM and 16 nM.
In the same order, the values of `Nc1n[nH]c2c(C#CCCCCOc3ccccc3)cc(-c3ccnc4[nH]ccc34)cc12` [Example 217, 7-(6-Phenoxyhex-1-yn-1-yl)-5-(1H-pyrrolo[2,3-b]pyridin-4-yl)-1H-indazol-3-amine] are 1260 nM and 243 nM.
As for `Nc1n[nH]c2ccc(-c3ccnc4[nH]c(Cc5ccccc5)cc34)cc12` [Example 223, 5-(2-Benzyl-1H-pyrrolo[2,3-b]pyridin-4-yl)-1H-indazol-3-amine], the Ki in test [1] turned out to be 111 nM; in test [2] it was 1 nM.
The matching figures for `CC(C)(O)c1cc2c(-c3ccc4[nH]nc(N)c4c3)ccnc2[nH]1` [Example 225, 2-(4-(3-Amino-1H-indazol-5-yl)-1H-pyrrolo[2,3-b]pyridin-2-yl)propan-2-ol]: 419 nM and 26 nM.
The matching figures for `CCC(O)(CC)c1cc2c(-c3ccc4[nH]nc(N)c4c3)ccnc2[nH]1` [Example 226, 3-(4-(3-Amino-1H-indazol-5-yl)-1H-pyrrolo[2,3-d]pyridin-2-yl)pentan-3-ol]: 922 nM and 95 nM.
In the same order, the values of `COC(=O)c1cc2c(-c3ccc4[nH]nc(N)c4c3)ccnc2[nH]1` [Example 231, Methyl 4-(3-amino-1H-indazol-5-yl)-1H-pyrrolo[2,3-b]pyridine-2-carboxylate] are 419 nM and 9 nM.
Consider `CCOC(=O)c1cc2c(-c3ccc4[nH]nc(N)c4c3)ccnc2[nH]1` [Example 232, Ethyl 4-(3-amino-1H-indazol-5-yl)-1H-pyrrolo[2,3-b]pyridine-2-carboxylate], for which the Ki is 1260 nM in test [1] and 10 nM in test [2].
As for `Nc1n[nH]c2ccc(-c3ccnc4[nH]c(C(=O)NC5CCCC5)cc34)cc12` [Example 235, 4-(3-Amino-1H-indazol-5-yl)-N-cyclopentyl-1H-pyrrolo[2,3-b]pyridine-2-carboxamide], the Ki was determined as 70 nM in test [1] and 6 nM in test [2].
Turning to `CC(C)CCNC(=O)c1cc2c(-c3ccc4[nH]nc(N)c4c3)ccnc2[nH]1` [Example 237, 4-(3-amino-1H-indazol-5-yl)-N-isopentyl-1H-pyrrolo[2,3-b]pyridine-2-carboxamide], the Ki in test [1] came out at 130 nM; in test [2], 3 nM.
In the same order, the values of `Nc1n[nH]c2ccc(-c3ccnc4[nH]c(C(=O)NCCc5ccccc5)cc34)cc12` [Example 238, 4-(3-Amino-1H-indazol-5-yl)-N-phenethyl-1H-pyrrolo[2,3-b]pyridine-2-carboxamide] are 90 nM and 23 nM.
The matching figures for `Nc1n[nH]c2ccc(-c3ccnc4[nH]c(C(=O)NCCCc5ccccc5)cc34)cc12` [Example 239, 4-(3-Amino-1H-indazol-5-yl)-N-(3-phenylpropyl)-1H-pyrrolo[2,3-b]pyridine-2-carboxamide]: 60 nM and 5 nM.
The matching figures for `COCCNC(=O)c1cc2c(-c3ccc4[nH]nc(N)c4c3)ccnc2[nH]1` [Example 240, 4-(3-Amino-1H-indazol-5-yl)-N-(2-methoxyethyl)-1H-pyrrolo[2,3-b]pyridine-2-carboxamide]: 30 nM and 5 nM.
Consider `NCCNC(=O)c1cc2c(-c3ccc4[nH]nc(N)c4c3)ccnc2[nH]1` [Example 241, 4-(3-Amino-1H-indazol-5-yl)-N-(2-aminoethyl)-1H-pyrrolo[2,3-b]pyridine-2-carboxamide], for which the Ki came out at 122 nM in test [1] and 4 nM in test [2].

Source of the values: patent publication US20250304576A1 (Cancer Research Technology Limited, priority 2022, published 2025).
